# According to publication PMC3563091 (Bioorganic & medicinal chemistry letters, 2012):
# Target: CMG2 (Capillary Morphogenesis Gene protein 2) (Homo sapiens, UniProt P58335, R40C)
# Type: binding
# Chain of CMG2 (Capillary Morphogenesis Gene protein 2) (P58335 34-489 R40C limits assumed): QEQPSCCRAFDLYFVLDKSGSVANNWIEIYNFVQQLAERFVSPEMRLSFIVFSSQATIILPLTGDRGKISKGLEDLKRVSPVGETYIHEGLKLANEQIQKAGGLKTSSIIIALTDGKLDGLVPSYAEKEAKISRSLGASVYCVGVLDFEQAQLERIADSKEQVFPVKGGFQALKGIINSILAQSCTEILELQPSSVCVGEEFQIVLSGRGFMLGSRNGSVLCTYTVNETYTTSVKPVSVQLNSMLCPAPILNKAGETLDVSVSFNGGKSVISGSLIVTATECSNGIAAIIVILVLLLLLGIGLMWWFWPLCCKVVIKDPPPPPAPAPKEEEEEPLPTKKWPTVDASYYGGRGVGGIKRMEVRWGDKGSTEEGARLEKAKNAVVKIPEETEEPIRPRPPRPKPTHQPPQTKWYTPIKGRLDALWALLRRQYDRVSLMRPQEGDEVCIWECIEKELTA
substance,measurement,value
7-O-methyl neolambertellin [compound 1],IC50,500 nM
